Data: patent US10130096B2, “Method for protecting useful plants or plant propagation material” (SYNGENTA PARTICIPATIONS AG, priority 2011, dated 2018)

Assays:
[1] = test system: Mycosphaerella arachidis (Cercospora arachidicola); test: Mycosphaerella arachidis liquid culture growth inhibition; type: cell-based; conditions: photometric, 4-5 days after application, read-out: control on Mycosphaerella arachidis
Protocol: (§1) Conidia of the fungus from cryogenic storage are directly mixed into nutrient broth (PDB potato dextrose broth). After placing a (DMSO) solution of test compound into a microtiter plate (96-well format), the nutrient broth containing the fungal spores is added.

Pythium ultimum [2] = test: Pythium ultimum liquid culture growth inhibition; type: cell-based; conditions: Globisporangium ultimum, photometric, 2-3 days after application, read-out: control on Pythium ultimum
Protocol: as §1, with “Mycelia fragments and oospores of a newly grown liquid culture” for “Conidia”, “fungus” for “fungus from cryogenic storage”, “mycelia/spore mixture” for “spores”

Fusarium culmorum = Fusarium culmorum liquid culture growth inhibition; type: cell-based; conditions: photometric, 3-4 days after application, read-out: control on Fusarium culmorum
Protocol: as §1, with “added. The test plates are incubated at 24° C. and the inhibition of growth is determined photometrically 3-4 days after application.” for “added.”

[3] = test system: Monographella nivalis (Microdochium nivale); test: Monographella nivalis liquid culture growth inhibition; type: cell-based; conditions: photometric, 4-5 days after application, read-out: control on Monographella nivalis
Protocol: as §1, with “added. The test plates are incubated at 24° C. and the inhibition of growth is determined photometrically 4-5 days after application.” for “added.”

Alternaria solani = Alternaria solani on tomato plants; type: in vivo; conditions: 4-week old tomato plants cv. Roter Gnom, spray, inoculated two days after application
Protocol: 4-week old tomato plants cv. Roter Gnom are sprayed in a spray chamber with the formulated test compound diluted in water. The test plants are inoculated by spraying them with a spore suspension two days after application. The inoculated test plants are incubated at 22/18° C. (day/night) and 95% rh in a greenhouse and the percentage leaf area covered by disease is assessed when an appropriate level of disease appears on untreated check plants (5-7 days after application).

[4] = test system: Glomerella lagenarium (Colletotrichum lagenarium); test: Glomerella lagenarium liquid culture growth inhibition; type: cell-based; conditions: Colletotrichum orbiculare, photometric, 3-4 days after application, read-out: control on Glomerella lagenarium
Protocol: as §1

[5] = test system: Botryotinia fuckeliana (Botrytis cinerea); test: Botryotinia fuckeliana liquid culture growth inhibition; type: cell-based; conditions: photometric, 3-4 days after application, read-out: control on Botryotinia fuckeliana
Protocol: Conidia of the fungus from cryogenic storage are directly mixed into nutrient broth (Vogels broth). After placing a (DMSO) solution of test compound into a microtiter plate (96-well format), the nutrient broth containing the fungal spores is added.

[6] = test system: Thanatephorus cucumeris (Rhizoctonia solani); test: Thanatephorus cucumeris liquid culture growth inhibition; type: cell-based; conditions: photometric, 3-4 days after application, read-out: control on Thanatephorus cucumeris
Protocol: Mycelia fragments of a newly grown liquid culture of the fungus are directly mixed into nutrient broth (PDB potato dextrose broth). After placing a (DMSO) solution of the test compounds into a microtiter plate (96-well format), the nutrient broth containing the fungal material is added. The test plates are incubated at 24° C. and the inhibition of growth is determined photometrically 3-4 days after application.

Pythium ultimum [7] = test: Example B-5: seed treatment against Pythium ultimum on cotton; type: in vivo; conditions: Globisporangium ultimum, rate of 200 g/100 kg seeds, infested soil, number of germinated, healthy plants
Protocol: The trial is kept for 1 week in a growth room at 20° C. and darkness. After this period the trial is transferred to a greenhouse where a temperature of 21° C. and a 14 h light period is provided until the trial is finished. The following assessments are made: number of germinated, healthy plants. Each number is determined for 150 seeds per treatment (3 replicates a 50 seeds).

| Compound | inhibition of growth at 200 ppm [1] [%] | inhibition of growth at 200 ppm (Pythium ultimum [2]) [%] | inhibition of growth at 200 ppm (Fusarium culmorum) [%] | inhibition of growth at 200 ppm [3] [%] | pest or weed control at 60 ppm (Alternaria solani) [%] | inhibition of growth at 200 ppm [4] [%] | inhibition of growth at 200 ppm [5] [%] | inhibition of growth at 200 ppm [6] [%] | pest or weed control at 200 g/100 kg seeds (Pythium ultimum [7]) [%] |
| --- | --- | --- | --- | --- | --- | --- | --- | --- | --- |
| NCC(OB1OCc2cc(Cl)ccc21)c1ccccc1 (stereo not drawn) [Compound 3, 2-(5-Chloro-3H-benzo[c][1,2]oxaborol-1-yloxy)-2-phenyl-ethylamine] | ≥ 80 | ≥ 80 | ≥ 80 | ≥ 80 | ≥ 60 | ≥ 80 | ≥ 80 |  |  |
| OB1OCc2ccc(Cl)cc21 [Compound 6, 6-Chloro-3H-benzo[c][1,2]oxaborol-1-ol] | ≥ 80 | ≥ 80 | ≥ 80 | ≥ 80 |  | ≥ 80 | ≥ 80 | ≥ 80 |  |
| OB1OCc2ccccc21 [Compound 11, 3H-Benzo[c][1,2]oxaborol-1-ol] | ≥ 80 | ≥ 80 | ≥ 80 |  |  | ≥ 80 | ≥ 80 |  | ≥ 50 |
| OB1OCc2cc3ccccc3cc21 [Compound 15, 3H-2-Oxa-1-bora-cyclopenta[b]naphthalen-1-ol] | ≥ 80 | ≥ 80 | ≥ 80 | ≥ 80 | ≥ 60 | ≥ 80 | ≥ 80 |  |  |
| OB1OCc2c1ccc1ccccc21 [Compound 16, 1H-2-Oxa-3-bora-cyclopenta[a]naphthalen-3-ol] | ≥ 80 |  |  | ≥ 80 |  | ≥ 80 | ≥ 80 |  |  |
| NCCOB1OCc2c1ccc1ccccc21 [Compound 18, 2-(1H-2-Oxa-3-bora-cyclopenta[a]naphthalen-3-yloxy)-ethylamine] | ≥ 80 | ≥ 80 | ≥ 80 | ≥ 80 | ≥ 60 | ≥ 80 |  |  |  |
| OB1OC(c2ccccc2)c2ccccc21 (stereo not drawn) [Compound 19, 3-Phenyl-3H-benzo[c][1,2]oxaborol-1-ol] | ≥ 80 | ≥ 80 |  | ≥ 80 |  | ≥ 80 |  |  |  |
| N[C@H](COB1OCc2cc(Cl)ccc21)Cc1ccccc1 [Compound 20, (S)-1-Benzyl-2-(5-chloro-3H-benzo[c][1,2]oxaborol-1-yloxy)-ethylamine] | ≥ 80 | ≥ 80 | ≥ 80 | ≥ 80 |  | ≥ 80 | ≥ 80 | ≥ 80 |  |
| CC(C)(N)COB1OCc2cc(Cl)ccc21 [Compound 21, 2-(5-Chloro-3H-benzo[c][1,2]oxaborol-1-yloxy)-1,1-dimethyl-ethylamine] | ≥ 80 | ≥ 80 | ≥ 80 | ≥ 80 |  | ≥ 80 | ≥ 80 | ≥ 80 |  |
| Clc1ccc2c(c1)COB2Oc1cccc2cccnc12 [Compound 22, 8-(5-Chloro-3H-benzo[c][1,2]oxaborol-1-yloxy)-quinoline] | ≥ 80 | ≥ 80 | ≥ 80 | ≥ 80 |  | ≥ 80 | ≥ 80 | ≥ 80 |  |
| N[C@@H](COB1OCc2cc(Cl)ccc21)c1ccccc1 [Compound 23, (R)-2-(5-Chloro-3H-benzo[c][1,2]oxaborol-1-yloxy)-1-phenyl-ethylamine] | ≥ 80 | ≥ 80 | ≥ 80 | ≥ 80 |  | ≥ 80 | ≥ 80 |  |  |
| Clc1ccc2c(c1)COB2OC[C@@H]1CCCN1 [Compound 24, (S)-2-(5-Chloro-3H-benzo[c][1,2]oxaborol-1-yloxymethyl)-pyrrolidine] | ≥ 80 | ≥ 80 | ≥ 80 | ≥ 80 |  | ≥ 80 | ≥ 80 | ≥ 80 |  |
| N[C@H](COB1OCc2cc(Cl)ccc21)c1ccccc1 [Compound 25, (S)-2-(5-Chloro-3H-benzo[c][1,2]oxaborol-1-yloxy)-1-phenyl-ethylamine] | ≥ 80 | ≥ 80 | ≥ 80 | ≥ 80 |  | ≥ 80 | ≥ 80 |  |  |
| CC(CN)OB1OCc2cc(Cl)ccc21 (stereo not drawn) [Compound 27, 2-(5-Chloro-3H-benzo[c][1,2]oxaborol-1-yloxy)-propylamine] | ≥ 80 | ≥ 80 | ≥ 80 | ≥ 80 | ≥ 60 | ≥ 80 | ≥ 80 | ≥ 80 |  |
| CC(N)COB1OCc2cc(Cl)ccc21 (stereo not drawn) [Compound 28, 2-(5-Chloro-3H-benzo[c][1,2]oxaborol-1-yloxy)-1-methyl-ethylamine] | ≥ 80 | ≥ 80 | ≥ 80 | ≥ 80 | ≥ 60 | ≥ 80 | ≥ 80 | ≥ 80 |  |
| c1ccc2c(c1)COB2Oc1cccc2cccnc12 [Compound 31, 8-(3H-Benzo[c][1,2]oxaborol-1-yloxy)-quinoline] | ≥ 80 | ≥ 80 | ≥ 80 | ≥ 80 |  | ≥ 80 | ≥ 80 |  |  |
| CC(C)(N)COB1OCc2ccccc21 [Compound 32, 2-(3H-Benzo[c][1,2]oxaborol-1-yloxy)-1,1-dimethyl-ethylamine] | ≥ 80 | ≥ 80 | ≥ 80 | ≥ 80 |  | ≥ 80 | ≥ 80 |  |  |
| CC(C)(C)c1ccc2c(c1)COB2OCCN [Compound 33, 2-(5-tert-Butyl-3H-benzo[c][1,2]oxaborol-1-yloxy)-ethylamine] | ≥ 80 |  |  |  |  |  |  |  |  |
| CC(C)(C)c1ccc2c(c1)COB2O [Compound 34, 5-tert-Butyl-3H-benzo[c][1,2]oxaborol-1-ol] | ≥ 80 |  |  | ≥ 80 |  | ≥ 80 |  |  |  |
| NCCOB1OCc2cc(Oc3ccccc3)ccc21 [Compound 35, 2-(5-Phenoxy-3H-benzo[c][1,2]oxaborol-1-yloxy)-ethylamine] | ≥ 80 |  |  | ≥ 80 |  | ≥ 80 |  |  |  |
| NCCOB1OCc2cc(Cl)ccc21 [Compound 36, 2-(5-Chloro-3H-benzo[c][1,2]oxaborol-1-yloxy)-ethylamine] | ≥ 80 | ≥ 80 | ≥ 80 | ≥ 80 |  | ≥ 80 | ≥ 80 | ≥ 80 |  |
